Assay results from PubChem BioAssay AID463204 (Broad Institute, 2010).
Active and inactive are the calls of the source.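 The calls were made as follows: active = AC50 no more than ten times the top concentration tested, that is within one log above it; inconclusive = flat curve fit with activity between 30% and 70%, or invalid poor fit; inactive = AC50 beyond ten times the top tested dose.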

These compounds were tested on S. cerevisiae Mot1-301 ts growth rescue, BacTiter-Glo ATP luminescence (assay: growth rescue of Mot1-301 ts yeast, confirmation, SUMOylation pathway inhibitor project, whole organism, S. cerevisiae, Mot1-301 ts mutant, luminescence, dose retest (AID 463204);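 also: growth at restrictive 38.5 degrees C of Mot1-301 OY566 strain; actives raise luminescence by restoring growth of the ts mutant at high temperature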).

| Compound | AC50 |
| --- | --- |
| NC(=O)C1CCCN(C(=S)Nc2cccc3ccccc23)C1 (stereo not drawn) | > 42 µM (inactive) |
| CSc1ccc(CCNC(=O)C2CCCN(S(=O)(=O)N3CCOCC3)C2)cc1 (stereo not drawn) | > 42 µM (inactive) |
| CCOc1ccc(Cl)cc1S(=O)(=O)N1CCC(C(=O)NCc2cccnc2)CC1 | > 42 µM (inactive) |
| COCCn1c(N)c(N(Cc2ccccc2)C(=O)CN2C(=O)NC(C)(c3ccccc3)C2=O)c(=O)[nH]c1=O (stereo not drawn) | > 42 µM (inactive) |
| COc1ccc(NC(=O)CSc2nccc(C)n2)cc1 | > 42 µM (inactive) |
| O=S1(=O)NC(c2ccccc2)CC(CC2CCCCC2)O1 (stereo not drawn) | 38.7 µM |
| CCOC(=O)c1cnc2c(OC)cccc2c1N1CCN(c2ccccc2OC)CC1 | > 42 µM (inactive) |
| Cc1ccc(C(C(=O)Nc2ccc3c(c2)OCO3)N(C)C(=O)/C=C\c2ccc3c(c2)OCO3)cc1 (stereo not drawn) | > 42 µM (inactive) |
| Cc1ccccc1C(=O)NNC(=S)Nc1cccc(C(F)(F)F)c1 | > 42 µM (inactive) |
| COc1ccc(S(=O)(=O)N2CCCOC2CNC(=O)C(=O)NCCCN2CCOCC2)cc1C (stereo not drawn) | > 42 µM (inactive) |
| CCCCNC(=O)N1CCC(CCC(=O)N(C)Cc2ccccc2)CC1 | > 42 µM (inactive) |
| CN(C(=O)COC(=O)c1cc(-c2ccc(Cl)s2)nc2ccccc12)C1CCS(=O)(=O)C1 (stereo not drawn) | > 42 µM (inactive) |
| COCCCNC(=O)c1cc2cc([N+](=O)[O-])cc(OC)c2oc1=O | > 42 µM (inactive) |
| CC(=O)N1c2ccc([N+](=O)[O-])cc2NC(=O)CC1C (stereo not drawn) | > 42 µM (inactive) |
| Oc1c(Br)cc(Br)cc1C=Nc1ccc2[nH]ncc2c1 | 4.76 µM |
| N#C/C(=N\Nc1cccc(F)c1)C(=N)N1CCCCCC1 | > 42 µM (inactive) |
| COc1cc(SC)ccc1C(=O)N1CCCCCC1 | > 42 µM (inactive) |
| N#C/C(=C/c1ccc(N2CCCCC2)o1)C(=O)Nc1ccc(Cl)cc1 | > 42 µM (inactive) |
| Cc1nc(-c2cccc(S(=O)(=O)N3CCOCC3)c2)cs1 | > 42 µM (inactive) |
| CCCCC(O)(c1ccc(F)cc1)C(CN1CCOCC1)c1ccc(Cl)cc1 (stereo not drawn) | 5.49 µM |
| Cc1cc(C)n2nc(SCC(=O)NC3CCCC(C)C3C)nc2n1 (stereo not drawn) | > 42 µM (inactive) |
| COc1cccc(NC(=O)CN(C)C(=O)c2ccccc2OCc2c(C)noc2C)c1 | > 42 µM (inactive) |
| COc1ccc(OC)c(-c2cc(C(=O)Nc3c(C)nn(Cc4ccccc4Cl)c3C)no2)c1 | > 42 µM (inactive) |
| COc1ccccc1NC(NC(=O)c1ccco1)C(=O)c1ccccc1 (stereo not drawn) | > 42 µM (inactive) |
| CC1CCCC(C)N1/N=C/c1cc(Br)cc(Br)c1O (stereo not drawn) | 12.5 µM |
| CC1CCN(CCNC(=O)C2CCCN(S(=O)(=O)c3cccc4nsnc34)C2)CC1 (stereo not drawn) | > 42 µM (inactive) |

| Compound | AC50 |
| --- | --- |
| O=C(COc1ncnc2ccccc12)Nc1ccc(Cl)c(S(=O)(=O)N2CCOCC2)c1 | > 42 µM (inactive) |
| CCOc1ccc(C(C(=O)NC2CCCC2)N(C(=O)c2snc(C(N)=O)c2N)C2CCCC2)cc1 (stereo not drawn) | 42 µM |
| C/C(=N/OCO/N=C(\C)c1ccccc1)c1ccccc1 | > 42 µM (inactive) |
| Cc1nnc(N=c2ssnc2Cl)o1 | 3.31 µM |
| COc1ccccc1CC(=O)N1CCOCC1 | > 42 µM (inactive) |
| Cc1ccccc1NC(=O)COC(=O)C1C2CC3OC(=O)C1C3C2 (stereo not drawn) | > 42 µM (inactive) |
| CC(C)CCCN1CCN=C1Nc1ccccc1 | > 42 µM (inactive) |
| CN(C)CC/C=C1\c2ccccc2Sc2ccc(Cl)cc21 | > 42 µM (inactive) |
| O=C(c1ccccc1F)N1CCN=C1SCc1cccnc1 | > 42 µM (inactive) |
| CC(C)NC(=O)CCCc1cn(C)c2ccccc12 | > 42 µM (inactive) |
| CC(=O)C1(c2ccccc2)CCNCC1 | > 21 µM (inactive) |
| COC(=O)c1ccc(Cl)c(NC(=O)CN(c2ccc(OC)c(OC)c2)S(C)(=O)=O)c1 | > 42 µM (inactive) |
| Cc1ccc(NC(=O)Cn2c(CCC(=O)O)ccc2-c2cccs2)cc1 | > 42 µM (inactive) |
| OCC1(Cc2cccc(Cl)c2)CCCN(Cc2ccc(F)c(F)c2)C1 (stereo not drawn) | > 42 µM (inactive) |
| COC(=O)c1ccc(CSc2nnnn2-c2ccccc2)o1 | > 42 µM (inactive) |
| COc1cc(S(=O)(=O)NC2CCCC2)c(OC)cc1C | > 42 µM (inactive) |
| O=C(COc1ccc(Cl)cc1)NCCCNC(=O)c1ccccn1 | > 42 µM (inactive) |
| CC(C)(C)NC(=O)C(c1cccs1)N(Cc1cccs1)C(=O)c1ccc(CN2CCOCC2)o1 (stereo not drawn) | > 42 µM (inactive) |
| c1ccc(CNc2ncnc3sc4c(c23)CCC4)nc1 | > 42 µM (inactive) |
| COc1ccc2c(c1)[C@@]13CCC=C[C@H]1[C@@H](C2)NCC3 | > 42 µM (inactive) |
| C=CCSc1nnc2c(n1)[nH]c1c(C)cccc12 | > 42 µM (inactive) |
| c1ccc2c(c1)[nH]c1c(N3CCN(C4CCCCC4)CC3)ncnc12 | > 42 µM (inactive) |
| O=C1c2ccccc2C(=O)N1CCSc1ccccc1 | > 42 µM (inactive) |
| CCOC(=O)c1cnc2c(C)c(Cl)ccc2c1N1CCOCC1 | > 42 µM (inactive) |
| Cc1ccc(C)n1-n1cnc2sc3c(c2c1=O)CCCCC3 | > 42 µM (inactive) |
| CCOC(=O)CNC(=O)c1cccnc1 | > 42 µM (inactive) |

| Compound | AC50 |
| --- | --- |
| CN(C)c1ccnc2sc3c(NCC(O)CO)ncnc3c12 (stereo not drawn) | > 42 µM (inactive) |
| Cc1ccc(-c2nc3c(=O)n(-c4ccccc4)c4c(c(=O)n(C)c(=O)n4C)c3o2)cc1 | > 42 µM (inactive) |
| COC(=O)/C=C\C(=O)Nc1cccc([N+](=O)[O-])c1 | 2.95 µM |
| CN1C2CCC1CC(OC(=O)c1ccc([N+](=O)[O-])cc1)C2 (stereo not drawn) | > 42 µM (inactive) |
| Cc1cc(NC(=O)c2ccc(N3C(=O)CCC3=O)cc2)no1 | > 42 µM (inactive) |
| Cc1cccc(N2CN=c3s/c(=C\c4ccccn4)c(=O)n3C2)c1 | > 42 µM (inactive) |
| CN(C)C(=O)CSc1nc2ccc(N3C(=O)c4ccccc4C3=O)cc2s1 | > 42 µM (inactive) |
| CCCSc1nc(=O)n2cccc(C)c2n1 | > 42 µM (inactive) |
| Cn1c(CCN2CCOCC2)nc2cc(NC(=O)COc3ccccc3)ccc21 | > 42 µM (inactive) |
| O=C(COC(=O)c1cccc(Br)c1)Nc1ccc2[nH]c(=O)[nH]c2c1 | > 42 µM (inactive) |
| c1ccc2c(C[C@@H]3CNCCN3CCCCC3CCCCC3)cccc2c1 | 15.6 µM |
| Cc1cc(C(F)(F)F)c(C#N)c(=O)[nH]1 | > 42 µM (inactive) |
| CCOC(=O)C1C(=O)NC(SCC(=O)Nc2nccs2)=C(C#N)C1c1ccccc1OCC (stereo not drawn) | > 42 µM (inactive) |
| C/C=C\C=C/C(=O)Nc1cccc(C2=NOC3(C2)C[C@@H](C(N)=O)N(C(=O)c2ccccc2)C3)c1 (stereo partly drawn) | > 42 µM (inactive) |
| C[C@@]12C(=O)Nc3ccc(F)cc3C(=O)N1[C@H]1c3ccccc3OC[C@@H]1[C@@H]2c1ccccc1 | 3.24 µM |
| COc1cc(/C=N/n2cnnc2)ccc1OCc1ccccc1 | > 42 µM (inactive) |
| Cc1nc(N)c(Cc2ccccc2F)c(N)n1 | > 42 µM (inactive) |
| CCN(CC)C(=O)Cn1c(=O)n(CCCC(=O)NCc2ccccc2)c(=O)c2sccc21 | > 42 µM (inactive) |
| COc1ccc2c(C(=O)CN3CC(C)OC(C)C3)c[nH]c2c1 (stereo not drawn) | > 42 µM (inactive) |
| NC(=S)N/N=C/c1cccc(O)c1O | > 42 µM (inactive) |
| Cc1ccc(C)c(NC(=S)NC(=O)c2cncc(Br)c2)c1 | > 42 µM (inactive) |
| CCCOC(=O)C1=C(C)NC2=C(C(=O)CCC2)C1c1cccs1 (stereo not drawn) | > 42 µM (inactive) |
| COc1nc(-c2ccccc2)ccc1-c1noc(-c2ccccc2)n1 | > 42 µM (inactive) |
| CN(CCOc1ccc(Cl)cc1)CC(=O)Nc1ccc(OC(F)F)cc1 | > 42 µM (inactive) |
| CCN(C(=O)CCS(=O)(=O)c1ccc2c(c1)oc(=O)n2C)c1ccc(OC)cc1 | > 42 µM (inactive) |
| COc1ccc(N2CCN(C(c3cccs3)C(C)NS(C)(=O)=O)CC2)cc1 (stereo not drawn) | > 42 µM (inactive) |

| Compound | AC50 |
| --- | --- |
| COCCN1C(=O)/C(=C/c2cc3c(cc2Br)OCO3)NC1=S | > 42 µM (inactive) |
| COc1ccc2cc3c(N)nn(C(=O)c4ccccc4Cl)c3nc2c1 | > 42 µM (inactive) |
| Cc1cccc(N2C(=O)/C(=C/c3cccnc3)SC2=S)c1 | > 42 µM (inactive) |
| COc1cc(CN2CCCC(CO)(Cc3cccc(Cl)c3)C2)cc2c1OCO2 (stereo not drawn) | > 42 µM (inactive) |
| CCOCCn1c(-c2ccc(OC)cc2)nc2ccccc21 | > 42 µM (inactive) |
| Cc1cnc(=O)[nH]c1SCC(=O)c1ccc(F)cc1 | > 42 µM (inactive) |
| C(=N\Nc1ccc2nncn2n1)/c1ccccn1 | > 42 µM (inactive) |
| Fc1ccc2nc(C3CCN(Cc4nc(CC5CC5)no4)CC3)[nH]c2c1 | > 42 µM (inactive) |
| CCCNC(=O)Cn1nc(C)n2c(cc3cc(F)ccc32)c1=O | > 42 µM (inactive) |
| Brc1ccc(-c2cn3cccnc3n2)cc1 | > 42 µM (inactive) |
| C#CCn1c(=NC(=O)CN2C(=O)CCC2=O)sc2cccc(OC)c21 | > 42 µM (inactive) |
| Cc1[nH]c(C)c(S(=O)(=O)NCC(C)c2ccccc2)c1C(=O)N1CCCCC1 (stereo not drawn) | > 42 µM (inactive) |
| C=CSc1sc(Cl)c(N(C)C)c1[N+](=O)[O-] | > 42 µM (inactive) |
| CC(=O)N1CCC2(CC1)CC(=O)c1cc(OCC(=O)N3CCCC3)ccc1O2 | > 42 µM (inactive) |
| CCn1c(SCC(=O)OC)nnc1-c1ccncc1 | > 42 µM (inactive) |
| Cc1nc2c(-c3ccc(F)cc3)cnn2c2c1CCC2 | > 42 µM (inactive) |
| COc1cccc(N2CCN(C3CCCC(C)C3)CC2)c1 (stereo not drawn) | > 42 µM (inactive) |
| Cn1c(=O)c2c(ncn2CC(=O)OCC(=O)Nc2ccc(Cl)cc2)n(C)c1=O | > 42 µM (inactive) |
| NC(=O)NC(=O)COC(=O)/C=C/c1cccs1 | > 42 µM (inactive) |
| CCOc1ccc2nc(CN3CCN(Cc4ccccc4OCC)C(CCO)C3)ccc2c1 (stereo not drawn) | > 42 µM (inactive) |
| COC(=O)c1ccc2[nH]c(C(C)(C)O)c(C)c2c1 | > 42 µM (inactive) |
| O=C(COC(=O)C1CC(=O)N(Cc2ccccc2)C1)Nc1ccccc1F (stereo not drawn) | > 21 µM (inactive) |
| Cc1ccc(N/N=C2/CCCNC2=O)cc1 | > 42 µM (inactive) |
| Cc1cc(C)cc(C(=O)NC(CC(N)=O)c2ccc(NCCN3CCOCC3)c([N+](=O)[O-])c2)c1 (stereo not drawn) | > 42 µM (inactive) |
| CN1c2ccccc2-c2nc3ccccc3n2C1c1ccncc1 (stereo not drawn) | > 42 µM (inactive) |
